Source: ChEMBL document CHEMBL1129599, “Quantitative structure-activity relationship study of fibrinogen inhibitors, [[4-(4-amidinophenoxy)butanoyl]aspartyl]valine (FK633) derivatives, using a novel hydrophobic descriptor” (J Med Chem, 1996)

Tested on: not listed separately
Assay: The retention time in min (35 uM)
Type: ADME
Conditions: not given

Row | SMILES | Retention time
1 | N=C(N)c1ccc(OCCCCC(=O)N[C@@H](CC(=O)O)C(=O)N[C@@H](Cc2ccc(O)cc2)C(=O)O)cc1 | 10.57 min
2 | CC(C)[C@H](NC(=O)[C@H](CC(=O)O)NC(=O)CCCCOc1ccc(C(=N)N)cc1)C(=O)O | 6.832 min
3 | CC(C)[C@H](NC(=O)[C@H](CC(=O)O)NC(=O)CCCOc1ccc(C(=N)N)cc1)C(=O)O | 5.347 min
4 | CC(C)C[C@H](NC(=O)[C@H](CC(=O)O)NC(=O)CCCOc1ccc(C(=N)N)cc1)C(=O)O | 8.25 min
5 | N=C(N)c1ccc(OCCCC(=O)N[C@@H](CC(=O)O)C(=O)N[C@@H](Cc2ccc(O)cc2)C(=O)O)cc1 | 8.79 min
6 | CC(C)(C)C[C@H](NC(=O)[C@H](CC(=O)O)NC(=O)CCCOc1ccc(C(=N)N)cc1)C(=O)O | 12.06 min
7 | CN(C(=O)[C@H](CC(=O)O)NC(=O)CCCCOc1ccc(C(=N)N)cc1)[C@@H](Cc1ccc(O)cc1)C(=O)O | 14.24 min
8 | CN(C(=O)[C@H](CC(=O)O)NC(=O)CCCOc1ccc(C(=N)N)cc1)[C@@H](Cc1ccc(O)cc1)C(=O)O | 11.82 min
9 | N=C(N)c1ccc(OCCCCC(=O)N[C@@H](CC(=O)O)C(=O)N[C@@H](CO)C(=O)O)cc1 | 3.238 min
10 | COC(=O)[C@H](Cc1ccc(O)cc1)NC(=O)[C@H](CC(=O)O)NC(=O)CCCCOc1ccc(C(=N)N)cc1 | 15.56 min
11 | CC[C@H](C)[C@H](NC(=O)[C@H](CC(=O)O)NC(=O)CCCOc1ccc(C(=N)N)cc1)C(=O)O | 8.25 min
12 | CCCC[C@H](NC(=O)[C@H](CC(=O)O)NC(=O)CCCOc1ccc(C(=N)N)cc1)C(=O)O | 9.491 min

Tested on: not listed separately
Assay: The retention time in min (40 uM)
Type: ADME
Conditions: not given

Row | SMILES | Retention time
13 | N=C(N)c1ccc(OCCCCC(=O)N[C@@H](CC(=O)O)C(=O)N[C@@H](Cc2ccc(O)cc2)C(=O)O)cc1 | 9.72 min
14 | CC(C)[C@H](NC(=O)[C@H](CC(=O)O)NC(=O)CCCCOc1ccc(C(=N)N)cc1)C(=O)O | 6.52 min
15 | CC(C)[C@H](NC(=O)[C@H](CC(=O)O)NC(=O)CCCOc1ccc(C(=N)N)cc1)C(=O)O | 5.207 min
16 | CC(C)C[C@H](NC(=O)[C@H](CC(=O)O)NC(=O)CCCOc1ccc(C(=N)N)cc1)C(=O)O | 7.826 min
17 | N=C(N)c1ccc(OCCCC(=O)N[C@@H](CC(=O)O)C(=O)N[C@@H](Cc2ccc(O)cc2)C(=O)O)cc1 | 8.23 min
18 | CC(C)(C)C[C@H](NC(=O)[C@H](CC(=O)O)NC(=O)CCCOc1ccc(C(=N)N)cc1)C(=O)O | 11.19 min
19 | CN(C(=O)[C@H](CC(=O)O)NC(=O)CCCCOc1ccc(C(=N)N)cc1)[C@@H](Cc1ccc(O)cc1)C(=O)O | 12.91 min
20 | CN(C(=O)[C@H](CC(=O)O)NC(=O)CCCOc1ccc(C(=N)N)cc1)[C@@H](Cc1ccc(O)cc1)C(=O)O | 10.91 min
21 | N=C(N)c1ccc(OCCCCC(=O)N[C@@H](CC(=O)O)C(=O)N[C@@H](CO)C(=O)O)cc1 | 3.199 min
22 | COC(=O)[C@H](Cc1ccc(O)cc1)NC(=O)[C@H](CC(=O)O)NC(=O)CCCCOc1ccc(C(=N)N)cc1 | 14.28 min
23 | CC[C@H](C)[C@H](NC(=O)[C@H](CC(=O)O)NC(=O)CCCOc1ccc(C(=N)N)cc1)C(=O)O | 7.826 min
24 | CCCC[C@H](NC(=O)[C@H](CC(=O)O)NC(=O)CCCOc1ccc(C(=N)N)cc1)C(=O)O | 8.943 min

Tested on: not listed separately
Assay: Micelle/water partition coefficient
Type: ADME
Conditions: buffer

Row | SMILES | Log Pmw
25 | N=C(N)c1ccc(OCCCCC(=O)N[C@@H](CC(=O)O)C(=O)N[C@@H](Cc2ccc(O)cc2)C(=O)O)cc1 | 1.82
26 | CC(C)[C@H](NC(=O)[C@H](CC(=O)O)NC(=O)CCCCOc1ccc(C(=N)N)cc1)C(=O)O | 1.32
27 | CC(C)[C@H](NC(=O)[C@H](CC(=O)O)NC(=O)CCCOc1ccc(C(=N)N)cc1)C(=O)O | 1.29
28 | CC(C)C[C@H](NC(=O)[C@H](CC(=O)O)NC(=O)CCCOc1ccc(C(=N)N)cc1)C(=O)O | 1.47
29 | N=C(N)c1ccc(OCCCC(=O)N[C@@H](CC(=O)O)C(=O)N[C@@H](Cc2ccc(O)cc2)C(=O)O)cc1 | 1.74
30 | CC(C)(C)C[C@H](NC(=O)[C@H](CC(=O)O)NC(=O)CCCOc1ccc(C(=N)N)cc1)C(=O)O | 1.59
31 | CN(C(=O)[C@H](CC(=O)O)NC(=O)CCCCOc1ccc(C(=N)N)cc1)[C@@H](Cc1ccc(O)cc1)C(=O)O | 2
32 | CN(C(=O)[C@H](CC(=O)O)NC(=O)CCCOc1ccc(C(=N)N)cc1)[C@@H](Cc1ccc(O)cc1)C(=O)O | 1.96
33 | N=C(N)c1ccc(OCCCCC(=O)N[C@@H](CC(=O)O)C(=O)N[C@@H](CO)C(=O)O)cc1 | 0.904
34 | COC(=O)[C@H](Cc1ccc(O)cc1)NC(=O)[C@H](CC(=O)O)NC(=O)CCCCOc1ccc(C(=N)N)cc1 | 2.09
35 | CC[C@H](C)[C@H](NC(=O)[C@H](CC(=O)O)NC(=O)CCCOc1ccc(C(=N)N)cc1)C(=O)O | 1.47
36 | CCCC[C@H](NC(=O)[C@H](CC(=O)O)NC(=O)CCCOc1ccc(C(=N)N)cc1)C(=O)O | 1.58

Tested on: not listed separately
Assay: The retention time in min (25 uM)
Type: ADME
Conditions: not given

Row | SMILES | Retention time
37 | N=C(N)c1ccc(OCCCCC(=O)N[C@@H](CC(=O)O)C(=O)N[C@@H](Cc2ccc(O)cc2)C(=O)O)cc1 | 12.79 min
38 | CC(C)[C@H](NC(=O)[C@H](CC(=O)O)NC(=O)CCCCOc1ccc(C(=N)N)cc1)C(=O)O | 7.547 min
39 | CC(C)[C@H](NC(=O)[C@H](CC(=O)O)NC(=O)CCCOc1ccc(C(=N)N)cc1)C(=O)O | 5.898 min
40 | CC(C)C[C@H](NC(=O)[C@H](CC(=O)O)NC(=O)CCCOc1ccc(C(=N)N)cc1)C(=O)O | 9.413 min
41 | N=C(N)c1ccc(OCCCC(=O)N[C@@H](CC(=O)O)C(=O)N[C@@H](Cc2ccc(O)cc2)C(=O)O)cc1 | 10.54 min
42 | CC(C)(C)C[C@H](NC(=O)[C@H](CC(=O)O)NC(=O)CCCOc1ccc(C(=N)N)cc1)C(=O)O | 14.11 min
43 | CN(C(=O)[C@H](CC(=O)O)NC(=O)CCCCOc1ccc(C(=N)N)cc1)[C@@H](Cc1ccc(O)cc1)C(=O)O | 17.87 min
44 | CN(C(=O)[C@H](CC(=O)O)NC(=O)CCCOc1ccc(C(=N)N)cc1)[C@@H](Cc1ccc(O)cc1)C(=O)O | 14.85 min
45 | N=C(N)c1ccc(OCCCCC(=O)N[C@@H](CC(=O)O)C(=O)N[C@@H](CO)C(=O)O)cc1 | 3.324 min
46 | COC(=O)[C@H](Cc1ccc(O)cc1)NC(=O)[C@H](CC(=O)O)NC(=O)CCCCOc1ccc(C(=N)N)cc1 | 20.18 min
47 | CC[C@H](C)[C@H](NC(=O)[C@H](CC(=O)O)NC(=O)CCCOc1ccc(C(=N)N)cc1)C(=O)O | 9.413 min
48 | CCCC[C@H](NC(=O)[C@H](CC(=O)O)NC(=O)CCCOc1ccc(C(=N)N)cc1)C(=O)O | 11.11 min

Tested on: not listed separately
Assay: The retention time in min (30 uM)
Type: ADME
Conditions: not given

Row | SMILES | Retention time
49 | N=C(N)c1ccc(OCCCCC(=O)N[C@@H](CC(=O)O)C(=O)N[C@@H](Cc2ccc(O)cc2)C(=O)O)cc1 | 11.47 min
50 | CC(C)[C@H](NC(=O)[C@H](CC(=O)O)NC(=O)CCCCOc1ccc(C(=N)N)cc1)C(=O)O | 7.12 min
51 | CC(C)[C@H](NC(=O)[C@H](CC(=O)O)NC(=O)CCCOc1ccc(C(=N)N)cc1)C(=O)O | 5.545 min
52 | CC(C)C[C@H](NC(=O)[C@H](CC(=O)O)NC(=O)CCCOc1ccc(C(=N)N)cc1)C(=O)O | 8.773 min
53 | N=C(N)c1ccc(OCCCC(=O)N[C@@H](CC(=O)O)C(=O)N[C@@H](Cc2ccc(O)cc2)C(=O)O)cc1 | 9.51 min
54 | CC(C)(C)C[C@H](NC(=O)[C@H](CC(=O)O)NC(=O)CCCOc1ccc(C(=N)N)cc1)C(=O)O | 12.96 min
55 | CN(C(=O)[C@H](CC(=O)O)NC(=O)CCCCOc1ccc(C(=N)N)cc1)[C@@H](Cc1ccc(O)cc1)C(=O)O | 15.67 min
56 | CN(C(=O)[C@H](CC(=O)O)NC(=O)CCCOc1ccc(C(=N)N)cc1)[C@@H](Cc1ccc(O)cc1)C(=O)O | 13.01 min
57 | N=C(N)c1ccc(OCCCCC(=O)N[C@@H](CC(=O)O)C(=O)N[C@@H](CO)C(=O)O)cc1 | 3.269 min
58 | COC(=O)[C@H](Cc1ccc(O)cc1)NC(=O)[C@H](CC(=O)O)NC(=O)CCCCOc1ccc(C(=N)N)cc1 | 17.31 min
59 | CC[C@H](C)[C@H](NC(=O)[C@H](CC(=O)O)NC(=O)CCCOc1ccc(C(=N)N)cc1)C(=O)O | 8.773 min
60 | CCCC[C@H](NC(=O)[C@H](CC(=O)O)NC(=O)CCCOc1ccc(C(=N)N)cc1)C(=O)O | 10.21 min

Target: T1, Integrin alpha-IIb/beta-3 (Homo sapiens, UniProt P05106+P08514)
T1 sequence (P05106 27-788 limits assumed): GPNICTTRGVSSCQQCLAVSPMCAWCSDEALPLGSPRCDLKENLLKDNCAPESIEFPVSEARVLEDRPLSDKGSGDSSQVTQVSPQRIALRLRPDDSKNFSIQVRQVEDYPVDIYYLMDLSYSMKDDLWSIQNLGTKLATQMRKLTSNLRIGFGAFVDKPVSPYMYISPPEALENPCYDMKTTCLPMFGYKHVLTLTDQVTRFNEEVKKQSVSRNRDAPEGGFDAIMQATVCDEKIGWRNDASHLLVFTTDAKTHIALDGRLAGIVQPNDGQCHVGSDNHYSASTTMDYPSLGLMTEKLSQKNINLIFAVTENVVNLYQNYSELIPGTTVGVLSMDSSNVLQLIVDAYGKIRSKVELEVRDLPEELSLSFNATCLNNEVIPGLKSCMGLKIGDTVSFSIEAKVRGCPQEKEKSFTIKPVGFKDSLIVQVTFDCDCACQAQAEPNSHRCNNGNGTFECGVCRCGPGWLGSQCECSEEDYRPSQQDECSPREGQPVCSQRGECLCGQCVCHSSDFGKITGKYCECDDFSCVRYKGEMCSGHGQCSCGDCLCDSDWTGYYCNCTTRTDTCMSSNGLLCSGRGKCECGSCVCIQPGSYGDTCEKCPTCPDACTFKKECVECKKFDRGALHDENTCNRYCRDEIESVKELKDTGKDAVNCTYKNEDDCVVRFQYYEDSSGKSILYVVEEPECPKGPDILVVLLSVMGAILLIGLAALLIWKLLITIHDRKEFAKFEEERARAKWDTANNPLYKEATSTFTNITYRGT
T1 sequence (P08514 32-887 limits assumed): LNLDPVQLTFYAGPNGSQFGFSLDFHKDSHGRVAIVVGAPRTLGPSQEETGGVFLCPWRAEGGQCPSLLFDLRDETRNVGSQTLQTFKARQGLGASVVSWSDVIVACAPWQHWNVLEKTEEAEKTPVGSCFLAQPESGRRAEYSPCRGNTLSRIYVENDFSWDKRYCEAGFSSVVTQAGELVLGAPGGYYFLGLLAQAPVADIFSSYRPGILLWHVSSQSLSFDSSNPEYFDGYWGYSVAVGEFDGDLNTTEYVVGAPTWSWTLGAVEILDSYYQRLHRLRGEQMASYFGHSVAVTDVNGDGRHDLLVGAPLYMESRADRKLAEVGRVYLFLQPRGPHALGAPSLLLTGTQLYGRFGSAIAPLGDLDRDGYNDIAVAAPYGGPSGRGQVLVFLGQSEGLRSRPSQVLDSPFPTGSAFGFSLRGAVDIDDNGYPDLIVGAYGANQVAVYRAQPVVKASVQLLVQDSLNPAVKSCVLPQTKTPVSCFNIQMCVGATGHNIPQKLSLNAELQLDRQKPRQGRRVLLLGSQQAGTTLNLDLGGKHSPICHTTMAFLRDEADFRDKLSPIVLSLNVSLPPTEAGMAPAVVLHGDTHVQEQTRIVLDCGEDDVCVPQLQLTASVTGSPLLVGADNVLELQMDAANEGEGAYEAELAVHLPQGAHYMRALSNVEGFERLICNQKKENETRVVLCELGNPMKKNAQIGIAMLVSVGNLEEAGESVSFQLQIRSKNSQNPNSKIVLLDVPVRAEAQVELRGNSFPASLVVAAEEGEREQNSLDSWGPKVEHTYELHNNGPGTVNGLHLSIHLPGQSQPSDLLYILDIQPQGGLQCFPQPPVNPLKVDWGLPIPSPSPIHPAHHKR
T1 sequence (P08514 891-1039 limits assumed): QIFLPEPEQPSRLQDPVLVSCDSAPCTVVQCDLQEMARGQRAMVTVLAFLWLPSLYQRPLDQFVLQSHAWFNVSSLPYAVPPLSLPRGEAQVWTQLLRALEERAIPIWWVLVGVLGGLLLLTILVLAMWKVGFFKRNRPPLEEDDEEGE
Assay: Inhibition of alphaIIb-beta3 integrin
Type: protein-complex assay
Conditions: not given

Row | SMILES | IC50
61 | CC(C)[C@H](NC(=O)[C@H](CC(=O)O)NC(=O)CCCOc1ccc(C(=N)N)cc1)C(=O)O | 110 nM
62 | CC(C)C[C@H](NC(=O)[C@H](CC(=O)O)NC(=O)CCCOc1ccc(C(=N)N)cc1)C(=O)O | 135 nM
63 | CC(C)(C)C[C@H](NC(=O)[C@H](CC(=O)O)NC(=O)CCCOc1ccc(C(=N)N)cc1)C(=O)O | 229 nM
64 | CN(C(=O)[C@H](CC(=O)O)NC(=O)CCCOc1ccc(C(=N)N)cc1)[C@@H](Cc1ccc(O)cc1)C(=O)O | 129 nM

Target: T1, Integrin alpha-IIb/beta-3
Assay: Inhibition of binding to integrin alphaIIb-beta3
Type: protein-complex assay
Conditions: not given

Row | SMILES | IC50
65 | COC(=O)[C@H](Cc1ccc(O)cc1)NC(=O)[C@H](CC(=O)O)NC(=O)CCCCOc1ccc(C(=N)N)cc1 | 4470 nM

Target: not listed separately
Assay: Inhibition of alphaIIb-beta3 integrin
Conditions: not given

Row | SMILES | Log IC50
66 | N=C(N)c1ccc(OCCCCC(=O)N[C@@H](CC(=O)O)C(=O)N[C@@H](Cc2ccc(O)cc2)C(=O)O)cc1 | -6.19
67 | CC(C)[C@H](NC(=O)[C@H](CC(=O)O)NC(=O)CCCCOc1ccc(C(=N)N)cc1)C(=O)O | -6.64
68 | CN(C(=O)[C@H](CC(=O)O)NC(=O)CCCCOc1ccc(C(=N)N)cc1)[C@@H](Cc1ccc(O)cc1)C(=O)O | -6.57
69 | CC[C@H](C)[C@H](NC(=O)[C@H](CC(=O)O)NC(=O)CCCOc1ccc(C(=N)N)cc1)C(=O)O | -6.85

Target: not listed separately
Assay: Inhibition of binding to fibrinogen receptor
Conditions: not given

Row | SMILES | Log IC50
70 | CCCC[C@H](NC(=O)[C@H](CC(=O)O)NC(=O)CCCOc1ccc(C(=N)N)cc1)C(=O)O | -7.12
